Earlier results on four compounds are cited in publication PMC10383573, “New Imadazopyrazines with CDK9 Inhibitory Activity as Anticancer and Antiviral: Synthesis, In Silico, and In Vitro Evaluation Approaches” (Pharmaceuticals, 2023).

Some results are limits rather than exact numbers.

The test system of data set [1] is three cancer cell lines. The settings on record: average of three cancer cell lines, ref [40], cited from earlier work.
Data set [2] concerns the target CDK9 (Homo sapiens, UniProt P50750). Also on record: purchased BPS Biosciences (San Diego, CA). Conditions: compound 2 of Figure 1; ref [40]; cited from earlier work.
Data set [3] concerns CDK2. Conditions: new-generation CDK9 inhibitors; ref [21] (Atuveciclib), [32] (BAY-1251152); cited from earlier work.
In data set [4] the test system is six breast cancer cell lines. The settings on record: read-out: Cytotoxicity IC50; average of six breast cancer cell lines; ref [38],[39]; cited from earlier work.
Data set [5] deals with CDK5. The settings on record: new-generation CDK9 inhibitors; ref [21]; cited from earlier work.
Data set [6] has as its system CDK7. The settings on record: new-generation CDK9 inhibitors; ref [21]; cited from earlier work.

CDK9, sequence (P50750 whole entry): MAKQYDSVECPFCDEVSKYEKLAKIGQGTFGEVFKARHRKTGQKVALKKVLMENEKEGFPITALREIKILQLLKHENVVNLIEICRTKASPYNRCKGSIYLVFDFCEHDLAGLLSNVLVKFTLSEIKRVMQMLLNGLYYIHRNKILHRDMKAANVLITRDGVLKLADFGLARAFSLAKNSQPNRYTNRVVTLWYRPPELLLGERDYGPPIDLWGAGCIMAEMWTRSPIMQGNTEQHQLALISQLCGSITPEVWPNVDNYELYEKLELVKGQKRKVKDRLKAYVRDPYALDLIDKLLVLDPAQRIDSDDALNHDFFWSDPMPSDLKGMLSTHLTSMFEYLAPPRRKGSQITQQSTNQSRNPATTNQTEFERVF
CDK9, sequence (O60563 whole entry, further chain): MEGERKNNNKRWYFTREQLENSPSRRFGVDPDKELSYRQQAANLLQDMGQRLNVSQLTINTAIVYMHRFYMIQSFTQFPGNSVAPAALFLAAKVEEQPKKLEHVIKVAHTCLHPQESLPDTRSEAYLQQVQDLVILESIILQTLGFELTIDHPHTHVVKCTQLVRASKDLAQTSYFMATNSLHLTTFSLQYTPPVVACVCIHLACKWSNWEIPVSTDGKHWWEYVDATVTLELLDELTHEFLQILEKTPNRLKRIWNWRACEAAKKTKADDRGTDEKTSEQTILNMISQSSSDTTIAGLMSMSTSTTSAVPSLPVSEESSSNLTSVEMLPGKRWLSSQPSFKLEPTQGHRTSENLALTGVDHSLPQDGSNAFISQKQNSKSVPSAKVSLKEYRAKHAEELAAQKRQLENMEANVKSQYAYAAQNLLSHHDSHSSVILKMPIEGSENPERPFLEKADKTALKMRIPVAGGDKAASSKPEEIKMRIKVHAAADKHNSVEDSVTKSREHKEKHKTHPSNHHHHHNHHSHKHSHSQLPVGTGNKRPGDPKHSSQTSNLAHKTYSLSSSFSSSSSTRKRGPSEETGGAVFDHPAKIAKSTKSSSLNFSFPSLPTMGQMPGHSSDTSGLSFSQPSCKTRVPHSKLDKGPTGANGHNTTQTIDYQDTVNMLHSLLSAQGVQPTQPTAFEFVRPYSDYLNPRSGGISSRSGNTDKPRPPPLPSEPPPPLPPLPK

As usually defined, the IC50 is the concentration that inhibits the measured activity by half. For the compound “2-phenylimidazopyrazin-3-amine [Compound 2]”, in data set [1], the “Cytotoxicity IC50” value is “single-digit”. The IC50 in data set [1] (read-out: Cytotoxicity IC50) is 6.66 µM. Further, in data set [2], the “CDK9 IC50” value is given as “submicromolar” and the half-maximal inhibitory concentration (IC50) is 166 nM.
As to `COc1cc(F)ccc1-c1cc(Nc2cc(CS(C)(=N)=O)ccn2)ncc1F` (stereo not drawn) [BAY-1251152], the IC50 in data set [3] is 2920 nM.
Consider `Oc1ccc(-c2nc3cnccn3c2NCCc2ccccc2)cc1O` [Compound 1], for which the concentration for half-maximal inhibition (IC50) in data set [4] was 34.8 µM.
In the case of `COc1cc(F)ccc1-c1ncnc(Nc2cccc(C[S@](C)(=N)=O)c2)n1` [Atuveciclib], the IC50 is 1000 nM in data set [3], 1600 nM in data set [5] and > 10 µM in data set [6].
